According to US20080076760A1, “2,3,4,5-TETRAHYDRO-1H-1,5-BENZODIAZEPINE DERIVATIVE AND MEDICINAL COMPOSITION” (priority 2004, published 2008):
pKi: −log10 of the molar value. Where two headings read alike, the source gives them in different places.

Columns and labels:
[1] = molecular target: human vasopressin V1a receptor (Homo sapiens, UniProt P37288); assay: Receptor binding study, [3H]AVP displacement on CHO cell membranes, human V1a
Description: (§1) (ii) Receptor Binding Study
(§2) Assay was performed using 50 mM of Tris-HCl (pH=7.4) (total amount: 250 μL) (buffer composition: containing […] of MgCl2 and 0.1% BSA), and incubation was performed at room temperature (25° C.) for one hour. After incubation, suck filtration was immediately performed and reaction was completed when the membrane sample was collected on a glass fiber filter fitted with the microplate. After the filter was washed with an ice-cold Tris-HCl buffer (50 mM Tris-HCl, 10 mM MgCl2, pH 7.4), radioactivity measurement was performed. Nonspecific binding was determined using nonradioactive-labeled AVP (1 μM).

[2] = molecular target: human vasopressin V2 receptor (Homo sapiens, UniProt P30518); assay: Receptor binding study, [3H]AVP displacement on CHO cell membranes, human V2
human vasopressin V2 receptor, sequence (P30518 whole entry): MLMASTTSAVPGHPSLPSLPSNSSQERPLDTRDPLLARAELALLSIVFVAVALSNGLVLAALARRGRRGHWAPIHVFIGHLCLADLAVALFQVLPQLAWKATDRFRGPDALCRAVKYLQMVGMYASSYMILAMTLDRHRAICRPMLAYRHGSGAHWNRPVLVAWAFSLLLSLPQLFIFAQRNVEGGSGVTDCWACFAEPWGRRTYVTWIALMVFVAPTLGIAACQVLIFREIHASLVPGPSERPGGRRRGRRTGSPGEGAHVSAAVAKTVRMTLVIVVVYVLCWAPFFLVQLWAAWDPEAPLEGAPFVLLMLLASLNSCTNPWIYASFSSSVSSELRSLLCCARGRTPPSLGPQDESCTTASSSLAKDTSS
Description: Preparation of Chinese hamster ovary (Cho) cell which expresses human vasopressin receptor subtype and production of membrane sample of the cell was conducted according to the method of Tahara et al. (Br. J. Pharmacol., 125, 1463-1470, 1998).
as §1
as §2, with “In saturation binding experiment, the membrane sample and [^3H]AVP of several concentrations (0.125 nM to 4.0 nM) were mixed and incubated in microplate wells. In displacement experiment, [^3H]AVP of constant concentrations (0.5 nM to 1.0 nM) and the membrane sample were mixed with Compound A of several concentrations, and incubation was performed. Assay” for “Assay”

[3] = [3H]AVP displacement, CHO cell membrane, 25° C., one hour, read-out: Human V1a Ki
[4] = [3H]AVP displacement, CHO cell membrane, 25° C., one hour, read-out: Human V2 Ki

human vasopressin V1a receptor, sequence (P37288 whole entry): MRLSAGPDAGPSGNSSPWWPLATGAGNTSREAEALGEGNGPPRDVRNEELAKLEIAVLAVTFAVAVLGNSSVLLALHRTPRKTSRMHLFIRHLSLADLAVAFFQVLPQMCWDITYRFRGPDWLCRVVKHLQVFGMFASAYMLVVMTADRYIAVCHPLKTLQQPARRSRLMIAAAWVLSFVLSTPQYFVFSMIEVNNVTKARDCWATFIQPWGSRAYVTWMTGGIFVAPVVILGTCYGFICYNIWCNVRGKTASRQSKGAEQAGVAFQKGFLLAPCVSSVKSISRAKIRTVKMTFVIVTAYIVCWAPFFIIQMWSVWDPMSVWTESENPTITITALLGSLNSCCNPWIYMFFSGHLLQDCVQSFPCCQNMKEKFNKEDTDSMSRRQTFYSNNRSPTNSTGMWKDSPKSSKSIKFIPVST

## CCCN(C)CCCOc1cc(C(=O)N2CC[C@H](C)Nc3ccccc32)ccc1-c1ccc(NC)cc1 [Example 105, N-methyl-2′-[3-[methyl(propyl)amino]propoxy]-4′-[[(4S)-4-methyl-2,3,4,5-tetrahydro-1H-1,5-benzodiazepin-1-yl]carbonyl][1,1′-biphenyl]-4-amine]
[1]; [3]
  pKi: 9.80
[2]; [4]
  pKi: 7.27

## CCCN(C)CCCOc1cc(C(=O)N2CC[C@H](C)Nc3ccccc32)ccc1-c1ccc2[nH]ccc2c1 [Example 81, N-[3-[2-(1H-indol-5-yl)-5-[[(4S)-4-methyl-2,3,4,5-tetrahydro-1H-1,5-benzodiazepin-1-yl]carbonyl]phenoxy]propyl]-N-methyl-N-propylamine]
[1]; [3]
  pKi: 9.77
[2]; [4]
  pKi: 8.10

## C[C@H]1CCN(C(=O)c2ccc(-c3ccc4[nH]ccc4c3)c(C(=O)OCCCN(C)C)c2)c2ccccc2N1 [Example 120, 3-(dimethylamino)propyl 2-(1H-indol-5-yl)-5-[[(4S)-4-methyl-2,3,4,5-tetrahydro-1H-1,5-benzodiazepin-1-yl]carbonyl]benzoate]
[1]; [3]
  pKi: 9.70
[2]; [4]
  pKi: 7.03

## Cc1ccc2c(c1)NC(C)CCN2C(=O)c1ccc(-c2ccc3[nH]ccc3c2)c(OCCN2CCOCC2)c1 (centres unmarked) [Example 104, 5-[(4,7-dimethyl-2,3,4,5-tetrahydro-1H-1,5-benzodiazepin-1-yl]carbonyl]-2-(1H-indol-5-yl)phenyl 2-(4-morpholinyl)ethyl ether]
[1]; [3]
  pKi: 9.46
[2]; [4]
  pKi: 8.46

## C[C@H]1CCN(C(=O)c2ccc(-c3ccc4[nH]ccc4c3)c(C(=O)OCCN(C)C)c2)c2ccccc2N1 [Example 144, 2-(dimethylamino)ethyl 2-(1H-indol-5-yl)-5-[[(4S)-4-methyl-2,3,4,5-tetrahydro-1H-1,5-benzodiazepin-1-yl]carbonyl]benzoate]
[1]; [3]
  pKi: 9.96
[2]; [4]
  pKi: 7.55

## CCCCN1CCN(CCCOc2cc(C(=O)N3CC[C@H](C)Nc4ccccc43)ccc2-c2ccc3[nH]ccc3c2)CC1 [Example 122, (4S)-1-[3-[3-(4-butyl-1-piperazinyl)propoxy]-4-(1H-indol-5-yl)benzoyl]-4-methyl-2,3,4,5-tetrahydro-1H-1,5-benzodiazepine]
[1]; [3]
  pKi: 9.68
[2]; [4]
  pKi: 8.29

## C[C@H]1CCN(C(=O)c2ccc(-c3ccc4[nH]ccc4c3)c(OCCCN)c2)c2ccccc2N1 [Example 38, 3-[2-(1H-indol-5-yl)-5-[[(4S)-4-methyl-2,3,4,5-tetrahydro-1H-1,5-benzodiazepin-1-yl]carbonyl]phenoxy]propylamine]
[1]; [3]
  pKi: 10.07
[2]; [4]
  pKi: 7.96

## C[C@H]1CCN(C(=O)c2ccc(-c3ccc4[nH]ccc4c3)c(OCCCN3C(=O)CSC3=O)c2)c2ccccc2N1 [Example 100, 3-[3-[2-(1H-indol-5-yl)-5-[[(4S)-4-methyl-2,3,4,5-tetrahydro-1H-1,5-benzodiazepin-1-yl]carbonyl]phenoxy]propyl]-1,3-thiazolidine-2,4-dione]
[1]; [3]
  pKi: 9.34
[2]; [4]
  pKi: 8.49

## COc1cc(C(=O)N2CCC(C)Nc3ccccc32)ccc1-c1ccc2[nH]ccc2c1 (centres unmarked) [Example 1, 1-[4-(1H-indol-5-yl)-3-methoxybenzoyl]-4-methyl-2,3,4,5-tetrahydro-1H-1,5-benzodiazepine]
[1]; [3]
  pKi: 9.41
[2]; [4]
  pKi: 8.77

## CC1CCN(C(=O)c2ccc(-c3ccc4[nH]ccc4c3)c(OCCCCCN)c2)c2ccccc2N1 (centres unmarked) [Example 37, 5-[2-(1H-indol-5-yl)-5-[(4-methyl-2,3,4,5-tetrahydro-1H-1,5-benzodiazepin-1-yl)carbonyl]phenoxy]-1-pentaneamine]
[1]; [3]
  pKi: 9.62
[2]; [4]
  pKi: 8.37

## CCCN(C)CCCCCOc1cc(C(=O)N2CC[C@H](C)Nc3ccccc32)ccc1-c1ccc2[nH]ccc2c1 [Example 126]
[1]; [3]
  pKi: 9.62
[2]; [4]
  pKi: 8.15

## CCCN(C)CCCOc1cc(C(=O)N2CC[C@H](C)Nc3ccccc32)ccc1-c1ccc(N)cc1 [Example 164, 2′-[3-[methyl(propyl)amino]propoxy]-4′-[[(4S)-4-methyl-2,3,4,5-tetrahydro-1H-1,5-benzodiazepin-1-yl]carbonyl][1,1′-biphenyl]-4-amine]
[1]; [3]
  pKi: 9.82
[2]; [4]
  pKi: 6.32

## C[C@H]1CCN(C(=O)c2ccc(-c3ccc4[nH]ccc4c3)c(N3CCOCC3)c2)c2ccccc2N1 [Example 134, (4S)-1-[4-(1H-indol-5-yl)-3-(4-morpholinyl)benzoyl]-4-methyl-2,3,4,5-tetrahydro-1H-1,5-benzodiazepine]
[1]; [3]
  pKi: 9.31
[2]; [4]
  pKi: 8.57

## CC(C)N(C)CCCOc1cc(C(=O)N2CC[C@H](C)Nc3ccccc32)ccc1-c1ccc2[nH]ccc2c1 [Example 85, N-[3-[2-(1H-indol-5-yl)-5-[[(4S)-4-methyl-2,3,4,5-tetrahydro-1H-1,5-benzodiazepin-1-yl]carbonyl]phenoxy]propyl]-N-isopropyl-N-methylamine]
[1]; [3]
  pKi: 10.28
[2]; [4]
  pKi: 8.11

## CCCN1CCN(CCCOc2cc(C(=O)N3CC[C@H](C)Nc4ccccc43)ccc2-c2ccc(NCC)cc2)CC1 [Example 159, N-ethyl-4′-[[(4S)-4-methyl-2,3-4,5-tetrahydro-1H-1,5-benzodiazepin-1-yl]carbonyl]-2′-[3-(4-propyl-1-piperazinyl)propoxy][1,1′-biphenyl]-4-amine]
[1]; [3]
  pKi: 9.74
[2]; [4]
  pKi: 7.96

## C[C@H]1CCN(C(=O)c2ccc(-c3ccc4[nH]ccc4c3)c(C(=O)CCCCN(C)C)c2)c2ccccc2N1 [Example 158, 5-(dimethylamino)-1-[2-(1H-indol-5-yl)-5-[[(4S)-4-methyl-2,3,4,5-tetrahydro-1H-1,5-benzodiazepin-1-yl]carbonyl]phenyl]-1-pentanone]
[1]; [3]
  pKi: 9.96
[2]; [4]
  pKi: 7.89

## CCC1CCN(C(=O)c2ccc(-c3ccc4[nH]ccc4c3)c(NC(C)=O)c2)c2ccccc2N1 (centres unmarked) [Example 8, N-[5-[(4-ethyl-2,3,4,5-tetrahydro-1H-1,5-benzodiazepin-1-yl)carbonyl]-2-(1H-indol-5-yl)-phenyl]acetamide]
[1]; [3]
  pKi: 9.80
[2]; [4]
  pKi: 7.82

## CC(=O)Nc1cc(C(=O)N2CC[C@H](C)Nc3ccccc32)ccc1-c1ccc2[nH]ccc2c1 [Example 17, N-[2-(1H-indol-5-yl)-5-[[(4S)-4-methyl-2,3,4,5-tetrahydro-1H-1,5-benzodiazepin-1-yl]carbonyl]phenyl]acetamide]
[1]; [3]
  pKi: 9.89
[2]; [4]
  pKi: 7.96

## C[C@H]1CCN(C(=O)c2ccc(-c3ccc4[nH]ccc4c3)c(OCCCN3CCCN(C)CC3)c2)c2ccccc2N1 [Example 109, (4S)-1-[4-(1H-indol-5-yl)-3-[3-(4-methyl-1,4-diazepane-1-yl)propoxy]benzoyl]-4-methyl-2,3,4,5-tetrahydro-1H-1,5-benzodiazepine]
[1]; [3]
  pKi: 9.89
[2]; [4]
  pKi: 8.15

## CCCN(C)CCCOc1cc(C(=O)N2CC[C@H](C)Nc3ccccc32)ccc1-c1ccc(OC(F)F)cc1 [Example 157, N-(3-[[4′-(difluoromethoxy)-4-[[(4S)-4-methyl-2,3,4,5-tetrahydro-1H-1,5-benzodiazepin-1-yl]carbonyl][1,1′-biphenyl]-2-yl]oxy]propyl]-N-methyl-N-propylamine]
[1]; [3]
  pKi: 9.55
[2]; [4]
  pKi: 7.55

## CCCN1CCN(CCCOc2cc(C(=O)N3CC[C@H](C)Nc4ccccc43)ccc2-c2ccc3[nH]ccc3c2)CC1 [Example 113, (4S)-1-[4-(1H-indol-5-yl)-3-[3-(4-propyl-1-piperazinyl)propoxy]benzoyl]-4-methyl-2,3,4,5-tetrahydro-1H-1,5-benzodiazepine]
[1]; [3]
  pKi: 9.59
[2]; [4]
  pKi: 8.30

## C[C@H]1CCN(C(=O)c2ccc(-c3ccc4[nH]ccc4c3)c(OCCCN(C)C(C)(C)C)c2)c2ccccc2N1 [Example 82, N-(tert-butyl)-N-[3-[2-(1H-indol-5-yl)-5-[[(4S)-4-methyl-2,3,4,5-tetrahydro-1H-1,5-benzodiazepin-1-yl]carbonyl]phenoxy]propyl]-N-methylamine]
[1]; [3]
  pKi: 9.80
[2]; [4]
  pKi: 7.80

## C[C@H]1CCN(C(=O)c2ccc(-c3ccc(N)cc3)c(OCCN3CCOCC3)c2)c2ccccc2N1 [Example 60, 4′-[[(4S)-4-methyl-2,3,4,5-tetrahydro-1H-1,5-benzodiazepin-1-yl]carbonyl]-2′-[2-(4-morpholinyl)ethoxy][1,1′-biphenyl]-4-amine]
[1]; [3]
  pKi: 9.57
[2]; [4]
  pKi: 7.08

## CC1CN(CCCOc2cc(C(=O)N3CC[C@H](C)Nc4ccccc43)ccc2-c2ccc3[nH]ccc3c2)CC(C)O1 (stereo partly drawn) [Example 80, (4S)-1-[3-[3-(2,6-dimethyl-4-morpholinyl)propoxy]-4-(1H-indol-5-yl)benzoyl]-4-methyl-2,3,4,5-tetrahydro-1H-1,5-benzodiazepine]
[1]; [3]
  pKi: 10.19
[2]; [4]
  pKi: 8.29

## CCCN(C)CCCCOc1cc(C(=O)N2CC[C@H](C)Nc3ccccc32)ccc1-c1ccc2[nH]ccc2c1 [Example 117, N-[4-[2-(1H-indol-5-yl)-5-[[(4S)-4-methyl-2,3,4,5-tetrahydro-1H-1,5-benzodiazepin-1-yl]carbonyl]phenoxy]butyl]-N-methyl-N-propylamine]
[1]
  pKi: 9.68
[2]
  pKi: 7.92
